# Data reported in patent US11643385B2, “Polymorphic forms of RAD1901-2HCl” (RADIUS PHARMACEUTICALS, INC., priority 2018, dated 2023).
# Marks after values point to notes of the source that are not given here.
# Test: Solubility assessment and polymorph screen on amorphous RAD1901-2HCl
# Format: physicochemical
# Details: after maturation at 50° C./RT
# Description: In a scale-up preparation of amorphous RAD1901-2HCl, RAD1901-2HCl (600 mg) was dissolved in water (20 vol., 12 mL) and filtered to remove any remaining solid particles. The solution was then aliquoted into 24 HPLC vials, frozen in a dry ice/acetone bath and the solvent removed by lyophilisation. Solids produced by lyophilization were used directly in solubility assessment and polymorph screens in Example 4.
# Amorphous RAD1901-2HCl prepared as described in Example 3B was used directly in solubility assessment and polymorph screens (Table 15). XRPD patterns were further obtained for amorphous RAD1901-2HCl prepared using other solvents.
# In the polymorph screen of the amorphous RAD1901-2HCl prepared as described in Example 3B, an aliquot of each sample was examined for its morphology under the microscope, both after maturing at 25° C., and after maturing at 50° C./RT. […] In some instances, the sample appeared to be a mixture of various polymorphic forms, e.g. Form 2 and Form 3 (FIGS. 18B-18C), similar to the mixture of Forms 2 and 3 in Sample 2 having an equilibrium between the two solid forms, depending on the prevailing RH.
row,Compound,XRPD post 50° C./RT (form)
1,CCNCCc1ccc(CN(CC)c2cc(OC)ccc2[C@@H]2CCc3cc(O)ccc3C2)cc1.Cl.Cl [Form B16.],Form 3*
2,CCNCCc1ccc(CN(CC)c2cc(OC)ccc2[C@@H]2CCc3cc(O)ccc3C2)cc1.Cl.Cl [Form B20.],Form 1

# Same assay, conditions: amorphous RAD1901-2HCl; 10 vol. solvent (solvent per sample ID)
row,Compound,Solubility observation at 10 vol.
1,CCNCCc1ccc(CN(CC)c2cc(OC)ccc2[C@@H]2CCc3cc(O)ccc3C2)cc1.Cl.Cl [Form B11.],S (S = solution)
2,CCNCCc1ccc(CN(CC)c2cc(OC)ccc2[C@@H]2CCc3cc(O)ccc3C2)cc1.Cl.Cl [Form B20.],X (X = suspension)

# Same assay, conditions: maturation at 25° C.
row,Compound,Observation After maturation at 25° C.
1,CCNCCc1ccc(CN(CC)c2cc(OC)ccc2[C@@H]2CCc3cc(O)ccc3C2)cc1.Cl.Cl [Form B11.],S

# Same assay, conditions: maturation at 50° C./RT
row,Compound,Observation After maturation at 50° C.
1,CCNCCc1ccc(CN(CC)c2cc(OC)ccc2[C@@H]2CCc3cc(O)ccc3C2)cc1.Cl.Cl [Form B11.],S
2,CCNCCc1ccc(CN(CC)c2cc(OC)ccc2[C@@H]2CCc3cc(O)ccc3C2)cc1.Cl.Cl [Form B20.],Crystalline

# Test: Storage at elevated temperature/humidity, solid form checked by XRPD
# Format: physicochemical
# Details: <40% RH, 8 hr
# Description: Samples 1 and 2 were characterized by XRPD at various conditions. XRPD patterns were collected for the samples at ambient condition as the samples were provided; at variable temperature (VT-XRPD); at variable humidity (VH-XRPD); after the samples were exposed to 40° C./75% RH for 1 week and 25° C./97% RH for 1 week, respectively; and after a GVS measurement wherein the samples were exposed to 0-90% RH. Samples 1 and 2 were also characterized by ^1H NMR, TGA, DSC, KF, IC, GVS (exposed to 0-90% RH), PLM, SEM, and HPLC (Table 5). […]
row,Compound,Form obtained on exposure to <40% RH for 8 hr
1,CCNCCc1ccc(CN(CC)c2cc(OC)ccc2[C@@H]2CCc3cc(O)ccc3C2)cc1.Cl.Cl [Form 3],Form 2

# Test: Solubility assessment of amorphous RAD1901-2HCl in water/organic solvent mixtures
# Format: physicochemical
# Details: 20 vol
# Description: Samples of amorphous RAD1901-2HCl were prepared in water/organic solvent mixtures containing varying ratios of water. The organic solvents chosen were anhydrous ethanol, methanol and ethyl acetate. The percentage of water in the water/organic solvent mixtures was varied between 0 and 10% (v/v) in order to place a limit on the level of water that can be present during production processes, and to retain formation of Form 1. Above this water activity limit, the hydrated Form 3 will be obtained, as shown by GVS experiments (see FIGS. 6G and 20A). It should be noted that samples prepared in ethyl acetate, were either slurried in anhydrous ethyl acetate, or in water saturated ethyl acetate.
# The water activity values for each water/organic solvent mixture are provided in Table 16, and were calculated using the reference given in Bell, Halling, Enzyme Microbiol. Technol. 1997, 20, 471, incorporated herein by reference.
row,Compound,Solubility observation at 20 vol.
1,CCNCCc1ccc(CN(CC)c2cc(OC)ccc2[C@@H]2CCc3cc(O)ccc3C2)cc1.Cl.Cl [Form C9.],X (X = suspension)
2,CCNCCc1ccc(CN(CC)c2cc(OC)ccc2[C@@H]2CCc3cc(O)ccc3C2)cc1.Cl.Cl [Form C10.],X (X = suspension)

# Same assay, conditions: 25° C., 72 hours
row,Compound,Observation After stirring at 25° C. for 72 hours
1,CCNCCc1ccc(CN(CC)c2cc(OC)ccc2[C@@H]2CCc3cc(O)ccc3C2)cc1.Cl.Cl [Form C5.],S
2,CCNCCc1ccc(CN(CC)c2cc(OC)ccc2[C@@H]2CCc3cc(O)ccc3C2)cc1.Cl.Cl [Form C6.],Crystals
3,CCNCCc1ccc(CN(CC)c2cc(OC)ccc2[C@@H]2CCc3cc(O)ccc3C2)cc1.Cl.Cl [Form C7.],Crystals
4,CCNCCc1ccc(CN(CC)c2cc(OC)ccc2[C@@H]2CCc3cc(O)ccc3C2)cc1.Cl.Cl [Form C8.],Crystals

# Same assay, conditions: 30 vol
row,Compound,Solubility observation at 30 vol
1,CCNCCc1ccc(CN(CC)c2cc(OC)ccc2[C@@H]2CCc3cc(O)ccc3C2)cc1.Cl.Cl [Form C9.],X (X = suspension)
2,CCNCCc1ccc(CN(CC)c2cc(OC)ccc2[C@@H]2CCc3cc(O)ccc3C2)cc1.Cl.Cl [Form C10.],X (X = suspension)

# Same assay, conditions: after stirring at 25° C. for 72 hours
row,Compound,XRPD (form) after stirring
1,CCNCCc1ccc(CN(CC)c2cc(OC)ccc2[C@@H]2CCc3cc(O)ccc3C2)cc1.Cl.Cl [Form C1.],Form 3
2,CCNCCc1ccc(CN(CC)c2cc(OC)ccc2[C@@H]2CCc3cc(O)ccc3C2)cc1.Cl.Cl [Form C2.],Form 1
3,CCNCCc1ccc(CN(CC)c2cc(OC)ccc2[C@@H]2CCc3cc(O)ccc3C2)cc1.Cl.Cl [Form C3.],Form 1
4,CCNCCc1ccc(CN(CC)c2cc(OC)ccc2[C@@H]2CCc3cc(O)ccc3C2)cc1.Cl.Cl [Form C4.],Form 1
5,CCNCCc1ccc(CN(CC)c2cc(OC)ccc2[C@@H]2CCc3cc(O)ccc3C2)cc1.Cl.Cl [Form C6.],Form 3*
6,CCNCCc1ccc(CN(CC)c2cc(OC)ccc2[C@@H]2CCc3cc(O)ccc3C2)cc1.Cl.Cl [Form C7.],Form 2
7,CCNCCc1ccc(CN(CC)c2cc(OC)ccc2[C@@H]2CCc3cc(O)ccc3C2)cc1.Cl.Cl [Form C8.],Form 2
8,CCNCCc1ccc(CN(CC)c2cc(OC)ccc2[C@@H]2CCc3cc(O)ccc3C2)cc1.Cl.Cl [Form C9.],Form 1*
9,CCNCCc1ccc(CN(CC)c2cc(OC)ccc2[C@@H]2CCc3cc(O)ccc3C2)cc1.Cl.Cl [Form C10.],Form 3

# Same assay, conditions: anhydrous ethanol
row,Compound,Form crystallized in anhydrous ethanol
1,CCNCCc1ccc(CN(CC)c2cc(OC)ccc2[C@@H]2CCc3cc(O)ccc3C2)cc1.Cl.Cl [amorphous RAD1901-2HCl],Form 1

# Same assay, conditions: anhydrous ethyl acetate
row,Compound,Form produced by slurrying in anhydrous ethyl acetate
1,CCNCCc1ccc(CN(CC)c2cc(OC)ccc2[C@@H]2CCc3cc(O)ccc3C2)cc1.Cl.Cl [amorphous RAD1901-2HCl],Form 1

# Same assay, conditions: anhydrous methanol
row,Compound,Form crystallized in anhydrous methanol
1,CCNCCc1ccc(CN(CC)c2cc(OC)ccc2[C@@H]2CCc3cc(O)ccc3C2)cc1.Cl.Cl [amorphous RAD1901-2HCl],Form 2

# Same assay, conditions: water-saturated ethyl acetate, water activity 0.77
row,Compound,Form produced by slurrying in water-saturated ethyl acetate
1,CCNCCc1ccc(CN(CC)c2cc(OC)ccc2[C@@H]2CCc3cc(O)ccc3C2)cc1.Cl.Cl [amorphous RAD1901-2HCl],Form 3

# Same assay, conditions: water/ethanol
Compound,Ratio of water/ethanol up to which crystals were Form 1,Water activity limit above which hydrate Form 3 results instead of Form 1
CCNCCc1ccc(CN(CC)c2cc(OC)ccc2[C@@H]2CCc3cc(O)ccc3C2)cc1.Cl.Cl [amorphous RAD1901-2HCl],up to 5%,0.39

# Same assay, conditions: water/methanol
Compound,Ratio of water/methanol up to which crystals were Form 2,Water activity limit above which hydrate Form 3 results instead of Form 2
CCNCCc1ccc(CN(CC)c2cc(OC)ccc2[C@@H]2CCc3cc(O)ccc3C2)cc1.Cl.Cl [amorphous RAD1901-2HCl],≤ 2%,0.08
